Experimental data reported in patent publication US20210093637A1, “TOPICAL OINTMENT FORMULATIONS OF PDE-4 INHIBITOR AND THEIR USE IN TREATING SKIN CONDITIONS” (Dermavant Sciences GmbH, priority 2017, published 2021).
Where “and” joins values, the source holds several entries; their conditions need not be identical. Equal entries are not always repeated. Entries after “also recorded” stand apart in the source; their conditions may differ.

Experiments:
[1] = Phase 2 study RVT-501-2001, plasma concentrations of RVT-501 and M11; type: in vivo, human
Excerpt: During the treatment period, subjects applied RVT-501 ointment or vehicle to affected areas twice daily (BID) for 28 days. Subjects returned to the clinic at Day 4 for evaluation, and again at Weeks 1, 2, 3, and 4 for safety and efficacy assessments. Pharmacokinetic samples were collected at Weeks 1 and 4. On clinic visit days (except on the Day 4 visit), subjects applied study drug on-site while under the supervision of site personnel, after efficacy assessments had been completed.
Statistical Methods: Efficacy Analyses: A sample size and power sensitivity analysis was conducted for the efficacy endpoints. Assuming an effect size (defined as difference of mean change from baseline EASI score between treatment groups relative to pooled standard deviation) of 0.7, a sample size of 50 subjects in an active arm and 50 subjects in the combined placebo will provide 93% power at an alpha level of 0.05 (2-sided), based on a 2-sided t-test. The sample size will also allow a difference of 33% between placebo and active treatment in a responder endpoint to be detected with 90% power and a 0.05 significance level assuming the proportion of responders in the placebo group is <=20%. Efficacy endpoints will be summarized and listed by treatment for each age group and both age groups combined; The between-treatment comparisons (active vs placebo and between active dose groups) for continuous efficacy variables will be performed using an analysis of covariance (ANCOVA) model. The between treatment comparisons for the proportion of responders will be compared using a CMH or Chi-square test. Safety Analyses: Adverse events will be mapped to a Medical Dictionary for Regulatory Activities (MedDRA). Treatment emergent adverse events will be summarized by treatment, preferred term and system organ classification. Descriptive summaries of vital signs, ECG parameters, and clinical laboratory results will be presented by study visit and treatment group. Pharmacokinetic Analyses: RVT-501 and M11 plasma concentrations will be listed by subject, treatment, and time; and will be summarized by treatment and time. The number and percent of subjects with a measurable concentration of either analyte at each time point and any time during the study will be provided.
Analysis Populations: Four analysis populations were used for this study. The Safety population, consisting of all subjects enrolled into the study who received study drug, was used for the safety analyses. The intent-to-treat (ITT) population, defined as all subjects randomized to treatment, was the primary population used for the efficacy analyses. The per protocol (PP) population included subjects who applied at least 50% of the doses. The PP population was used for confirmatory analysis of the efficacy variables. The PK population included all subjects who underwent plasma PK sampling and had at least one evaluable PK sample (a concentration reported as below the lower limit of quantitation (LLQ) of the assay was considered an evaluable PK sample).
Pharmacokinetics: Blood samples for PK analysis of RVT-501 and the M11 metabolite will be collected at the time points indicated in Table 1. The actual date and time of each blood sample collection will be recorded as well as the date and time of the last dose of study mediation. The timing of PK samples may be altered and/or PK samples may be obtained at additional time points to ensure thorough PK monitoring.
Pharmacokinetics summary: PK samples were collected pre-dose at Weeks 1 and 4, and 2-4 hrs post-dose at Week 4. […] Three patients had detectable M11 exposure with the highest value at 1.60 ng/mL.

[2] = Phase 2 study in pediatric patients (Example 6), plasma concentrations of RVT-501 and M11 at Week 1; type: in vivo, human; details: for Plasma concentration, Mean (SD) / Plasma concentration, Median / Plasma concentration, Min / Plasma concentration, max / N with concentrations above LLQ (plasma): Week 1 pre-dose, subjects aged 2 to 11 years, twice daily application of RVT-501 0.5%; for N with concentrations above LLQ (plasma): N 16, LLQ 0.25 ng/mL
Procedure: Pharmacokinetic Endpoint: PK analysis for RVT-501 and M11 metabolite at the Week 1 visit in subjects 2 to 11 years old.
Pharmacokinetic Analyses: RVT-501 and M11 were measured in plasma by a validated assay. Plasma concentrations were summarized as continuous variables.
Pharmacokinetic Concentration Results: A single blood sample was collected pre-dose in subjects aged 2 to 11 years old at Week 1 to assess the concentration of RVT-501 and the M11 metabolite in plasma.

[3] = Blood-to-plasma partition (B/P); type: in vitro ADME, human; details: for average B/P of two levels: 3 and 160 ng/mL; for blood plasma ratio at 3 ng/mL / blood plasma ratio at 160 ng/mL: human, whole blood and plasma prepared from it
Procedure: Blood-to-plasma partition and shelf-life of refrigerated blood: The blood-to-plasma partition (B/P) of E6005 and M11 was determined by assaying concentrations of E6005 and M11 in whole blood samples and plasma samples prepared from blood samples by centrifugation. […] The average B/P of two levels was 0.679 for E6005 and 0.584 for M11.

[4] = Clinical application of DBS assay: blood levels in pediatric trial of E6005 ointment; type: in vivo, human; details: pediatric subjects; E6005 ointment 0.05% or 0.2% twice a day for two weeks; 147 DBS samples
Procedure: Clinical application: A clinical study was performed in which E6005 ointment containing 0.05% or 0.2% was topically applied twice a day for two weeks to pediatric subjects. Blood samples were obtained at 1- and 2-week post-dose as well as subsequent 7-day follow-up period in collection tubes with K2-EDTA as an anticoagulant, thereafter put on ice as soon as possible to reduce possible conversion of E6005 to M11. Details on sample handling at the clinics were clarified in a lab manual; a 25 μL aliquot blood sample was spotted onto the center of circle of DBS cards (four replicates per sample) at clinics, then dried at room temperature for at least 2 h. DBS cards with desiccants were placed in zip lock bags and stored frozen below −20° C. until shipment to a bioanalytical laboratory. Samples were stored below −15° C. at the laboratory until they were subjected to sample processing for the determination of E6005 and M11 concentrations in DBS.

[5] = Week 1, RVT-501 0.5% twice daily, person two

Plasma concentration, Mean (SD) [2] | Plasma concentration, Median [2] [ng/mL] | Plasma concentration, Min [2] [ng/mL] | Plasma concentration, max [2] [ng/mL] | N with concentrations above LLQ (plasma) [2] | average B/P of two levels [3] | blood plasma ratio at 3 ng/mL [3] | blood plasma ratio at 160 ng/mL [3] | maximum level in blood (DBS) [4] | SMILES | further results
31.69 (88.531) ng/mL | 0 | 0 | 306.00 | 3 | 0.679 | 0.69 | 0.669 | 1.65 ng/mL | CNc1nc(-c2cccc(NC(=O)c3ccc(C(=O)OC)cc3)c2)c2cc(OC)c(OC)cc2n1 [RVT-501, methyl N-[3-(6,7-dimethoxy-2-methylaminoquinazolin-4-yl)phenyl]terephthalamic acid] | highest plasma concentration of RVT-501 ([1]; RVT-501 0.2% group, Week 4): 1.23 ng/mL; plasma RVT-501 concentration, Subject 18014 (adolescent) ([1]; RVT-501 0.2% group, Week 4, 2 hours post-dose): 1.20 ng/mL; plasma RVT-501 concentration, Subject 18014 (adolescent) ([1]; RVT-501 0.2% group, Week 4 pre-dose): 1.23 ng/mL; plasma concentration of RVT-501 ([1]; Week 1 pre-dose, all treatment groups, LLQ): < 1.00 ng/mL; systemic absorption ([1]; topical 0.2% and 0.5% BID): minimal to no systemic absorption; plasma RVT-501 concentration, Subject 03001 ([2]; Week 1, RVT-501 0.5% twice daily, person one): 1.07 ng/mL; plasma RVT-501 concentration, Subject 05002 [2, 5]: 306 ng/mL and 306.00 ng/mL; plasma RVT-501 concentration, Subject 21001 [2, 5]: above the upper limit of quantification; also recorded: above upper limit of quantitation
1.50 (4.194) ng/mL | 0.19 | 0 | 16.90 | 8 | 0.584 | 0.594 | 0.574 | below the LLOQ | CNc1nc(-c2cccc(NC(=O)c3ccc(C(=O)O)cc3)c2)c2cc(OC)c(OC)cc2n1 [Formulation M11, 4-((3-(6,7-dimethoxy-2-(methylamino)quinazolin-4-yl)phenyl)carbamoyl)benzoic acid] | plasma M11 concentration, Subject 18014 (adolescent) ([1]; RVT-501 0.2% group, Week 1 pre-dose): 1.27 ng/mL; plasma M11 concentration, Subject 03005 (adult) ([1]; RVT-501 0.5% group, Week 1 pre-dose): 1.60 ng/mL; plasma M11 concentration, Subject 09003 (adult) ([1]; RVT-501 0.5% group, Week 4 pre-dose): 1.09 ng/mL; highest plasma concentration of M11 metabolite ([1]; all groups, Weeks 1 and 4): 1.60 ng/mL; highest plasma M11 concentration (Subject 05002) ([2]; Week 1, RVT-501 0.5% twice daily): 16.90 ng/mL; measurable plasma concentrations of the M11 metabolite (eight subjects out of 16) ([2]; Week 1, ages 2-11 years): near the lower limit of quantitation
